Assay results as given in ChEMBL document CHEMBL3856213, “neo-Clerodane diterpenoids from Scutellaria barbata mediated inhibition of P-glycoprotein in MCF-7/ADR cells” (Eur J Med Chem, 2016).
The source made the active and inactive calls. The rule behind the calls is not given here.

Columns and labels:
NCI/ADR-RES [1] = assay: Inhibition of P-gp in human MCF7/ADR cells assessed as increase in intracellular adriamycin accumulation at 20 uM after 3 hrs by flow cytometry; type: cell-based
NCI/ADR-RES [2] = assay: Inhibition of P-gp in human MCF7/ADR cells assessed as potentiation of adriamycin-induced cytotoxic activity at 20 uM after 48 hrs by MTT assay relative to control; type: cell-based
NCI/ADR-RES [3] = assay: Inhibition of P-gp in human MCF7/ADR cells assessed as increase in intracellular rhodamine123 accumulation at 10 to 20 uM incubated for 4 hrs in dark condition by flow cytometry; type: cell-based
[4] = Cytotoxicity against human MCF7 cells assessed as inhibition of cell survival rate at 50 uM after 48 hrs by MTT assay relative to control; type: functional; conditions: MCF7, 48 h
NCI/ADR-RES [5] = assay: Inhibition of P-gp in human MCF7/ADR cells assessed as increase in intracellular adriamycin accumulation at 10 uM after 3 hrs by flow cytometry relative to control; type: cell-based
NCI/ADR-RES [6] = assay: Reversal index, ratio of IC50 for human MCF7/ADR cells to IC50 for human MCF7 cells; type: functional
[7] = Cytotoxicity against human MCF7/ADR cells assessed as inhibition of cell survival rate after 48 hrs by MTT assay; type: functional, cell-based; conditions: NCI/ADR-RES
[8] = Cytotoxicity against human MCF7 cells assessed as inhibition of cell survival rate after 48 hrs by MTT assay; type: functional, cell-based; conditions: MCF7, 48 h
[9] = Downregulation of P-gp expression in human MCF7/ADR cells at 20 uM after 36 hrs by Western blot method relative to control; type: functional, cell-based; conditions: NCI/ADR-RES
NCI/ADR-RES [10] = assay: Inhibition of P-gp in human MCF7/ADR cells assessed as increase in intracellular adriamycin accumulation at 20 uM after 3 hrs by flow cytometry relative to verapamil; type: cell-based
NCI/ADR-RES [11] = assay: Inhibition of P-gp in human MCF7/ADR cells assessed as increase in intracellular adriamycin accumulation at 10 to 20 uM after 4 hrs by fluorescence microscopic analysis; type: cell-based
[12] = Downregulation of P-gp expression in human MCF7/ADR cells at 10 uM after 36 hrs by Western blot method relative to control; type: functional, cell-based; conditions: NCI/ADR-RES
NCI/ADR-RES [13] = assay: Inhibition of P-gp in human MCF7/ADR cells assessed as potentiation of adriamycin-induced cell death by measuring dead cell levels at 20 uM after 48 hrs by 7-AAD staining-based flow cytometry (reference value: 8.1%); design: scale not given: the % may be the effect or the level left
NCI/ADR-RES [14] = assay: Inhibition of P-gp in human MCF7/ADR cells assessed as potentiation of adriamycin-induced cell death by measuring dead cell levels at 10 uM after 48 hrs by 7-AAD staining-based flow cytometry; design: scale not given: the % may be the effect or the level left
NCI/ADR-RES [15] = assay: Inhibition of P-gp in human MCF7/ADR cells assessed as increase in intracellular adriamycin accumulation at 10 uM after 3 hrs by flow cytometry relative to verapamil; type: cell-based

Row | SMILES | inhibition (NCI/ADR-RES [1]) | fold change (FC) (NCI/ADR-RES [2]) | inhibition (NCI/ADR-RES [3]) | inhibition at 50 µM [4] [%] | further results
1 | CC(=O)O[C@H]1[C@H](OC(=O)c2cccnc2)[C@@]2(C)C(C)=CC[C@@H](OC(=O)c3cccnc3)[C@@H]2[C@@]2(C)CC[C@@]3(COC(=O)C3)O[C@@]12C | Active | 37.7 | Active | 35.7 | fold change (FC) (NCI/ADR-RES [5]): 2.36
2 | CC(=O)O[C@@H](CC1=C(O)C(=O)OC1)[C@]1(C)[C@H]2CCC=C(C)[C@]2(C)[C@@H](OC(=O)c2cccnc2)[C@H](OC(=O)c2ccccc2)[C@]1(C)O | – | 2 | – | 23.1 | –
3 | CC1=CCC[C@H]2[C@@]1(C)[C@@H](OC(=O)c1cccnc1)[C@H](OC(=O)c1cccnc1)[C@](C)(O)[C@]2(C)/C=C\C1=CC(=O)OC1 | – | 13.1 | – | 18.8 | –
4 | COc1cccc2c1C(=O)c1c(O)c3c(c(O)c1C2=O)C[C@@](O)(C(=O)CO)C[C@@H]3O[C@H]1C[C@H](N)[C@H](O)[C@H](C)O1.Cl [DOXORUBICIN HYDROCHLORIDE] | – | – | – | – | Ratio IC50 (NCI/ADR-RES [6]): 58.8; IC50 [7]: 58.8 µM; IC50 [8]: 1 µM
5 | CC1=CCC[C@H]2[C@@]1(C)[C@@H](OC(=O)c1cccnc1)[C@H](OC(=O)c1ccccc1)[C@](C)(O)[C@]2(C)/C=C/C1=CC(=O)OC1 | – | 10.1 | – | 23.8 | –
6 | CC1=CCC[C@H]2[C@@]1(C)[C@@H](OC(=O)c1cccnc1)[C@H](OC(=O)c1ccccc1)[C@](C)(O)[C@]2(C)/C=C\C1=CC(=O)OC1 | – | 9 | – | 17.4 | –
7 | CC[C@]1(O)C[C@H]2CN(CCc3c([nH]c4ccccc34)[C@@](C(=O)OC)(c3cc4c(cc3OC)N(C=O)[C@H]3[C@@](O)(C(=O)OC)[C@H](OC(C)=O)[C@]5(CC)C=CCN6CC[C@]43[C@@H]65)C2)C1 [VINCRISTINE] | – | – | – | – | Ratio IC50 (NCI/ADR-RES [6]): 48.3; IC50 [7]: 62.8 µM; IC50 [8]: 1.3 µM
8 | CC(=O)O[C@H]1[C@H](OC(=O)c2cccnc2)[C@@]2(C)C(C)=CC[C@@H](OC(=O)c3cccnc3)[C@@H]2[C@@]2(C)CC[C@]3(COC(=O)C3)O[C@@]12C | Active | 16.7 | Active | 28.5 | inhibition (NCI/ADR-RES [5]): Active
9 | CC1=CC[C@@H](OC(=O)c2cccnc2)[C@H]2[C@@]1(C)[C@@H](OC(=O)c1cccnc1)[C@H](O)[C@]1(C)O[C@@]3(CC[C@]21C)COC(=O)C3 | Active | 11.4 | Active | 15.1 | inhibition (NCI/ADR-RES [5]): Active
10 | CC1=CCC[C@H]2[C@@]1(C)[C@@H](OC(=O)c1cccnc1)[C@H](O)[C@](C)(O)[C@]2(C)CCC1=C(O)C(=O)OC1 | – | 11.5 | – | 28.5 | –
11 | CC1=CCC[C@H]2[C@@]1(C)[C@@H](OC(=O)c1cccnc1)[C@H](OC(=O)c1cccnc1)[C@](C)(O)[C@]2(C)/C=C/C1=CC(=O)OC1 | – | 4.6 | – | 31.4 | –
12 | CC(=O)O[C@@]12CO[C@@H]1C[C@H](O)[C@@]1(C)C(=O)[C@H](O)C3=C(C)[C@@H](OC(=O)[C@H](O)[C@@H](NC(=O)OC(C)(C)C)c4ccccc4)C[C@@](O)([C@@H](OC(=O)c4ccccc4)[C@H]21)C3(C)C [DOCETAXEL ANHYDROUS] | – | – | – | – | Ratio IC50 (NCI/ADR-RES [6]): 26.5; IC50 [7]: 21.2 µM; IC50 [8]: 0.8 µM
13 | CC1=CC[C@@H](OC(=O)c2cccnc2)[C@H]2[C@@]1(C)[C@H]1O[C@@](O)(C(C)C)C(=O)O[C@@H]1[C@]1(C)O[C@@]3(CC[C@]21C)COC(=O)C3 | Active | 12.2 | Active | 20.6 | inhibition (NCI/ADR-RES [5]): Active
14 | CC(=O)O[C@@H](CC1=C(O)C(=O)OC1)[C@]1(C)[C@H]2CCC=C(C)[C@]2(C)[C@@H](OC(=O)c2cccnc2)[C@H](OC(=O)c2cccnc2)[C@]1(C)O | – | 3.3 | – | 17.1 | –
15 | CC(=O)O[C@@H](CC1=C(O)C(=O)OC1)[C@]1(C)[C@H]2CCC=C(C)[C@]2(C)[C@@H](OC(=O)c2cccnc2)[C@H](O)[C@]1(C)O | – | 1.5 | – | 18.5 | –
16 | CC(=O)OC(C(=O)O[C@H]1[C@H](OC(=O)c2cccnc2)[C@@]2(C)C(C)=CCC[C@@H]2[C@@](C)(/C=C/C2=CC(=O)OC2)[C@@]1(C)O)C(C)C (stereo not given in full) | – | 11.4 | – | 23.8 | –
17 | CC(=O)O[C@H]1[C@H](OC(C)=O)[C@]2(C)O[C@@]3(CC[C@]2(C)[C@H]2[C@H](OC(=O)c4cccnc4)CC=C(C)[C@]12C)COC(=O)C3 (relative stereo) | Active | 11.5 | Active | 16.6 | inhibition (NCI/ADR-RES [5]): Active
18 | CC1=CC[C@@H](OC(=O)c2ccccc2)[C@H]2[C@@]1(C)[C@@H](OC(=O)c1cccnc1)[C@H](O)[C@]1(C)O[C@]3(CC[C@]21C)COC(=O)C3 (relative stereo) | Active | 17.8 | Active | 20.1 | inhibition (NCI/ADR-RES [5]): Active
19 | CC1=CCC[C@H]2[C@@]1(C)[C@@H](OC(=O)c1cccnc1)[C@H](OC(=O)C(C)C)[C@](C)(O)[C@]2(C)/C=C/C1=CC(=O)OC1 | – | 6.3 | – | 19.1 | –
20 | CC1=CC[C@@H](OC(=O)c2ccccc2)[C@H]2[C@@]1(C)[C@@H](OC(=O)c1cccnc1)[C@H](O)[C@]1(C)O[C@@]3(CC[C@]21C)COC(=O)C3 | Active | 33.4 | Active | 41.3 | inhibition (NCI/ADR-RES [5]): Active
21 | CC1=CC[C@@H](OC(=O)c2cccnc2)[C@H]2[C@@]1(C)[C@@H](OC(=O)c1cccnc1)[C@H](OC(=O)c1ccccc1)[C@]1(C)O[C@]3(CC[C@]21C)COC(=O)C3 | Active | 45.3 | Active | 13.6 | Activity [9]: 32%; fold change (FC) (NCI/ADR-RES [10]): 1.8; inhibition (NCI/ADR-RES [11]): Active; Activity [12]: 27%; Activity (NCI/ADR-RES [13]): 89.2%; fold change (FC) (NCI/ADR-RES [5]): 2.89; Activity (NCI/ADR-RES [14]): 74.7%; fold change (FC) (NCI/ADR-RES [15]): 1.5
22 | CC(=O)O[C@H]1[C@H](OC(=O)c2cccnc2)[C@@]2(C)C(C)=CC[C@@H](O)[C@@H]2[C@@]2(C)[C@@H](OC(=O)c3cccnc3)C[C@@]3(COC(=O)C3)O[C@@]12C | Active | 29.1 | Active | 14.3 | inhibition (NCI/ADR-RES [5]): Active
23 | CC1=CC[C@@H](OC(=O)c2cccnc2)[C@H]2[C@@]1(C)[C@@H](OC(=O)c1cccnc1)[C@H](OC(=O)c1cccnc1)[C@]1(C)O[C@]3(CC[C@]21C)COC(=O)C3 | Active | 29.6 | Active | 40.6 | fold change (FC) (NCI/ADR-RES [5]): 2.27
24 | CC(=O)OC[C@@]12[C@@H](OC(C)=O)C[C@@H](C)[C@](C)(C3O[C@@H]4OC[C@@H](OC(=O)c5cccnc5)[C@@H]4[C@@H]3O)[C@H]1CCC[C@]21CO1 (stereo not given in full) | – | 2.8 | – | 25.2 | –
25 | CC1=CC[C@@H](O)[C@H]2[C@@]1(C)[C@@H](OC(=O)c1cccnc1)[C@H](O)[C@]1(C)O[C@]3(COC(=O)C3)C[C@H](OC(=O)c3cccnc3)[C@]21C (relative stereo) | – | 7.5 | – | 14.6 | –
26 | CC1=CC[C@@H](O)[C@H]2[C@@]1(C)[C@@H](OC(=O)c1cccnc1)[C@H](O)[C@]1(C)O[C@]3(COC(=O)C3O)C[C@H](OC(=O)c3cccnc3)[C@]21C (relative stereo) | – | 7.9 | – | 19.5 | –
27 | COc1ccc(CCN(C)CCCC(C#N)(c2ccc(OC)c(OC)c2)C(C)C)cc1OC (stereo not given) | – | 20.4 | – | – | fold change (FC) (NCI/ADR-RES [5]): 2.1; Activity (NCI/ADR-RES [14]): 46.7%
28 | CC(=O)OC(C(=O)O[C@H]1[C@H](OC(=O)c2cccnc2)[C@@]2(C)C(C)=CCC[C@@H]2[C@@](C)(CCC2=C(O)C(=O)OC2)[C@@]1(C)O)C(C)C (stereo not given in full) | – | 3 | – | 37.6 | –
29 | CC(=O)O[C@H]1[C@H](OC(C)=O)[C@]2(C)O[C@]3(CC[C@]2(C)[C@H]2[C@H](OC(=O)c4cccnc4)CC=C(C)[C@]12C)COC(=O)C3 | – | 13 | Active | 19.5 | –
